Experimental data reported in patent US20030088312A1, “Use of cladribine on a stent to prevent restenosis” (priority 2000, published 2003).

System: human smooth muscle cells
Assay: Inhibition of PDGF-stimulated human smooth muscle cell proliferation (cell count, day 6)
Assay type: cell-based
Details: ratio of IC50 values, SMC vs EC
Experimental: To assess the ability of cladribine to prevent cell proliferation, human smooth muscle or endothelial cells (Clonetics, Walkersville, Md.) were seeded at a density of 2000 cells/cm^2 (approximately […] cells/well) into each well of 12-well plates and cultured with 1.5 ml of growth medium containing 5% fetal calf serum (FCS). After 24 hours, the growth medium was changed and fresh medium containing 10 ng/ml platelet-derived growth factor AB (PDGF AB; LIFE Technologies), as well as various concentrations of cladribine (0.001-10,000 nM) were added with triplicate wells. Medium was replaced with fresh cladribine-containing medium after 3 days. On day six, cells were detached by trypsinization to yield a cell suspension, lightly centrifuged to pellet and then counted manually using a Neubauer hemacytometer system. Clee viability was assessed by trypan blue exclusion.
Table 1 provides the percent inhibition of the various tested concentrations of cladribine on human smooth muscle and endothelial cells in culture. Cladribine produced a concentration-related decrease in the proliferation of both smooth muscle and endothelial cells in this model system. […]

Nc1nc(Cl)nc2c1ncn2[C@H]1C[C@H](O)[C@@H](CO)O1 [Cladribine]
potency as inhibitor of smooth muscle cells relative to endothelial cells: approximately twice as potent
